biological target: Beta-3 Adrenergic Receptor (Homo sapiens (Human), UniProt P13945); assay: Homogeneous Time-Resolved Fluorescence (HTRF) cAMP antagonist assay, IC50 determination; type: cell-based; conditions: CHO-K1 cells stably expressing recombinant receptor, isoproterenol at EC90
How it was run: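 CHO-K1 cells stably expressing receptor, 1500 cells/well, preincubated briefly with 10-point 5-fold compound series (top final typically 10 or 100 μM) in PBS with 1 mM IBMX, then challenged with isoproterenol at EC90 for 1 h at room temperature. cAMP read by HTRF against on-plate standard curve; IC50 from dose-response.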

Beta-3 Adrenergic Receptor, sequence (P13945 whole entry, species assumed): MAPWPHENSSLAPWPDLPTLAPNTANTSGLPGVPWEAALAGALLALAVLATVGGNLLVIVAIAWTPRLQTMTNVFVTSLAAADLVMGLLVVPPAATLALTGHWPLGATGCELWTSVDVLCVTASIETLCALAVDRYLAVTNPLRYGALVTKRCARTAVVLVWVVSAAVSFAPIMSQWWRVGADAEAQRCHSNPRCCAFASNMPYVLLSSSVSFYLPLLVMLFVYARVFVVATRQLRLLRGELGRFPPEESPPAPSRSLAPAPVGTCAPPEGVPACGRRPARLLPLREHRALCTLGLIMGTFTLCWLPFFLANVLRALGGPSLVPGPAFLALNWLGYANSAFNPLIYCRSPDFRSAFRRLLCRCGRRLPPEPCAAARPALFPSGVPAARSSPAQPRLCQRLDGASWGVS

Compound | IC50
CNS(=O)(=O)c1cccc(OC[C@@H](O)CNC2COC3(CCN(S(=O)(=O)c4cn(C)cn4)CC3)C2)c1 (stereo partly drawn) [Compound 194, 3-((2S)-2-hydroxy-3-(8-(1-methyl-1H-imidazol-4-ylsulfonyl)-1-oxa-8-azaspiro[4.5]decan-3-ylamino)propoxy)-N-methylbenzenesulfonamide] | 97.6 nM
CCn1cc(-c2cccc(S(=O)(=O)N3CCC4(CC3)CC(NC[C@H](O)COc3cccc(S(=O)(=O)N(C)C)c3)CO4)c2)cn1 (stereo partly drawn) [Compound 272, 3-((2S)-3-(8-(3-(1-ethyl-1H-pyrazol-4-yl)phenylsulfonyl)-1-oxa-8-azaspiro[4.5]decan-3-ylamino)-2-hydroxypropoxy)-N,N-dimethylbenzenesulfonamide] | 107 nM
C[C@H](CO)NS(=O)(=O)c1cccc(OC[C@@H](O)CN[C@H]2COC3(CCN(S(=O)(=O)c4cnc5c(c4)N(C)CCO5)CC3)C2)c1 [Compound 418, 3-((S)-2-hydroxy-3-((R)-8-(1-methyl-2,3-dihydro-1H-pyrido[2,3-b][1,4]oxazin-7-ylsulfonyl)-1-oxa-8-azaspiro[4.5]decan-3-ylamino)propoxy)-N—((R)-1-hydroxypropan-2-yl)benzenesulfonamide] | 172 nM
O=S(=O)(NCC(F)F)c1cccc(OC[C@@H](O)CNC2COC3(CCN(S(=O)(=O)c4ccc5ccccc5c4)CC3)C2)c1 (stereo partly drawn) [Compound 9, N-(2,2-difluoroethyl)-3-((2S)-2-hydroxy-3-(8-(naphthalen-2-ylsulfonyl)-1-oxa-8-azaspiro[4.5]decan-3-ylamino)propoxy)benzenesulfonamide] | 107 nM
CNS(=O)(=O)c1cccc(OC[C@@H](O)CNC2COC3(CCN(S(=O)(=O)c4cccc(-c5ccc(CNC(=O)CN)cc5)c4)CC3)C2)c1 (stereo partly drawn) [Compound 353, 2-amino-N-((3′-(3-((S)-2-hydroxy-3-(3-(N-methylsulfamoyl)phenoxy)propylamino)-1-oxa-8-azaspiro[4.5]decan-8-ylsulfonyl)biphenyl-4-yl)methyl)acetamide] | 58 nM
CN1CCOc2ncc(S(=O)(=O)N3CCC4(CC3)C[C@@H](NC[C@H](O)COc3cccc(S(=O)(=O)NCCO)c3)CO4)cc21 [Compound 417, 3-((S)-2-hydroxy-3-((R)-8-(1-methyl-2,3-dihydro-1H-pyrido[2,3-b][1,4]oxazin-7-ylsulfonyl)-1-oxa-8-azaspiro[4.5]decan-3-ylamino)propoxy)-N-(2-hydroxyethyl)benzenesulfonamide] | 112 nM
CNS(=O)(=O)c1cccc(OC[C@@H](O)CN[C@H]2COC3(CCN(S(=O)(=O)c4cnc5cc(C)ccc5c4O)CC3)C2)c1 [Compound 538, 3-((S)-2-hydroxy-3-((R)-8-(4-hydroxy-7-methylquinolin-3-ylsulfonyl)-1-oxa-8-azaspiro[4.5]decan-3-ylamino)propoxy)-N-methylbenzenesulfonamide] | 54.2 nM
CNS(=O)(=O)c1cccc(OC[C@@H](O)CNC2COC3(CCN(S(=O)(=O)c4ccc(OC)cc4C)CC3)C2)c1 (stereo partly drawn) [Compound 236, 3-((2S)-2-hydroxy-3-(8-(4-methoxy-2-methylphenylsulfonyl)-1-oxa-8-azaspiro[4.5]decan-3-ylamino)propoxy)-N-methylbenzenesulfonamide] | 54.9 nM

These reach a lower IC50. Values come first.

IC50 | Compound
47.8 nM | CNS(=O)(=O)c1cccc(OC[C@@H](O)CNC2COC3(CCN(S(=O)(=O)c4cccc(-c5cncc(C#N)c5)c4)CC3)C2)c1 (stereo partly drawn) [Compound 370, 3-((2S)-3-(8-(3-(5-cyanopyridin-3-yl)phenylsulfonyl)-1-oxa-8-azaspiro[4.5]decan-3-ylamino)-2-hydroxypropoxy)-N-methylbenzenesulfonamide]
39.7 nM | CNS(=O)(=O)c1cccc(OC[C@@H](O)CNC2COC3(CCN(S(=O)(=O)c4ccsc4)CC3)C2)c1 (stereo partly drawn) [Compound 196, 3-((2S)-2-hydroxy-3-(8-(thiophen-3-ylsulfonyl)-1-oxa-8-azaspiro[4.5]decan-3-ylamino)propoxy)-N-methylbenzenesulfonamide]
36.2 nM | CNS(=O)(=O)c1cccc(OC[C@@H](O)CNC2COC3(CCN(S(=O)(=O)c4ccc5nc[nH]c5c4)CC3)C2)c1 (stereo partly drawn) [Compound 146, 3-((2S)-3-(8-(1H-benzo[d]imidazol-6-ylsulfonyl)-1-oxa-8-azaspiro[4.5]decan-3-ylamino)-2-hydroxypropoxy)-N-methylbenzenesulfonamide]
33.5 nM | CNS(=O)(=O)c1cccc(OC[C@@H](O)CNC2COC3(CCN(S(=O)(=O)c4cccc(-c5cccc(S(=O)(=O)N(C)C)c5)c4)CC3)C2)c1 (stereo partly drawn) [Compound 115, 3′-(3-((S)-2-hydroxy-3-(3-(N-methylsulfamoyl)phenoxy)propylamino)-1-oxa-8-azaspiro[4.5]decan-8-ylsulfonyl)-N,N-dimethylbiphenyl-3-sulfonamide]
31.1 nM | CNS(=O)(=O)c1cccc(OC[C@@H](O)CN[C@H]2COC3(CCN(S(=O)(=O)c4cnc5c(c4)N(C)C[C@@H](C)O5)CC3)C2)c1 [Compound 468, 3-((S)-3-((R)-8-((R)-1,3-dimethyl-2,3-dihydro-1H-pyrido[2,3-b][1,4]oxazin-7-ylsulfonyl)-1-oxa-8-azaspiro[4.5]decan-3-ylamino)-2-hydroxypropoxy)-N-methylbenzenesulfonamide]
24.4 nM | CNS(=O)(=O)c1cccc(OC[C@@H](O)CNC2COC3(CCN(S(=O)(=O)c4cc(C)cc(-c5ccc(CN)cc5)c4)CC3)C2)c1 (stereo partly drawn) [Compound 373, 3-((2S)-3-(8-(4′-(aminomethyl)-5-methylbiphenyl-3-ylsulfonyl)-1-oxa-8-azaspiro[4.5]decan-3-ylamino)-2-hydroxypropoxy)-N-methylbenzenesulfonamide]
24.4 nM | CNS(=O)(=O)c1cccc(OC[C@@H](O)CN[C@H]2COC3(CCN(S(=O)(=O)c4cnc5c(c4)CCC5)CC3)C2)c1 [Compound 491, 3-((S)-3-((R)-8-(6,7-dihydro-5H-cyclopenta[b]pyridin-3-ylsulfonyl)-1-oxa-8-azaspiro[4.5]decan-3-ylamino)-2-hydroxypropoxy)-N-methylbenzenesulfonamide]
23.5 nM | CCOc1ccc(S(=O)(=O)N2CCC3(CC2)CC(NC[C@H](O)COc2cccc(S(=O)(=O)NC)c2)CO3)cc1 (stereo partly drawn) [Compound 136, 3-((2S)-3-(8-(4-ethoxyphenylsulfonyl)-1-oxa-8-azaspiro[4.5]decan-3-ylamino)-2-hydroxypropoxy)-N-methylbenzenesulfonamide]
22.1 nM | CNS(=O)(=O)c1cccc(OC[C@@H](O)CNC2COC3(CCN(S(=O)(=O)c4cccc(-c5sc(C)nc5C)c4)CC3)C2)c1 (stereo partly drawn) [Compound 73, 3-((2S)-3-(8-(3-(2,4-dimethylthiazol-5-yl)phenylsulfonyl)-1-oxa-8-azaspiro[4.5]decan-3-ylamino)-2-hydroxypropoxy)-N-methylbenzenesulfonamide]
14.3 nM | NS(=O)(=O)c1cccc(OC[C@@H](O)CN[C@H]2COC3(CCN(S(=O)(=O)c4cnc5ccccc5c4O)CC3)C2)c1 [Compound 548, 3-((S)-2-hydroxy-3-((R)-8-(4-hydroxyquinolin-3-ylsulfonyl)-1-oxa-8-azaspiro[4.5]decan-3-ylamino)propoxy)benzenesulfonamide]
13.2 nM | CNS(=O)(=O)c1cccc(OC[C@@H](O)CNC2COC3(CCN(S(=O)(=O)c4ccc(C(C)(C)C)cc4)CC3)C2)c1 (stereo partly drawn) [Compound 36, 3-((2S)-3-(8-(4-tert-butylphenylsulfonyl)-1-oxa-8-azaspiro[4.5]decan-3-ylamino)-2-hydroxypropoxy)-N-methylbenzenesulfonamide]

Reference: patent publication US11987588B2, “Modulators of the beta-3 adrenergic receptor useful for the treatment or prevention of heart failure and disorders related thereto” (Arena Pharmaceuticals, Inc., priority 2017, dated 2024)
